Values of other authors, collected in patent US20040053283A1, “Gene 4” (priority 2000, published 2004).

Assays:
[1] = tested on: tissue culture model of cerebral ischemia
[2] = tested on: rat stroke model (middle ear cerebral artery occlusion); details: in vivo

O=C(O)CCC(CP(=O)(O)O)C(=O)O (stereo not shown) [2-PNPA, 2-(phosphonomethyl)pentanedioic acid]
protection from cellular injury ([1]; 10 μM, tissue culture model of cerebral ischemia): 85% | protective effect ([1]; even one hour after the ischemia): significant | neuronal protection ([2]; rat stroke model (middle ear cerebral artery occlusion)): high degree of neuronal protection | tolerability ([2]; rat stroke model, at levels that produced a high degree of neuronal protection): well tolerated
